A word on the CLint scaled: it is the rate of metabolic loss divided by the concentration. Usually half-life stands for the time in which the quantity being followed falls by half. A higher half-life goes with slow decline.

This data set is described as follows: time-dependent metabolization (stability) in HLM and IVIVE of hepatic clearance. The data set is classed as in vitro ADME, human. The text has this:
In the widely used concept of the “well-stirred” model, liver represents a single uniform compartment. It is further assumed that the concentration of unbound SH045 leaving the liver is in equilibrium with its unbound concentration in hepatocytes (detailed calculation in Supplementary Materials SM8, summarized values in SR4). Briefly, microsomal intrinsic clearance was converted to hepatic clearance: CLhep = Q × fu × CLint/Q + (fu × CLint), where fu is the unbound fraction of SH045 in blood and Q is the hepatic blood flow in mice.
For this purpose, remaining concentrations of SH045 in microsomes were determined to calculate the intrinsic microsomal clearance CLint,micr, the intrinsic clearance CLint, equal to the maximum enzyme activity of liver and for in vitro-in vivo exploration of hepatic clearance CLhep in mouse and human using the well-stirred model. The algorithm for these calculations is given in detail in the Supplementary Materials SM8. […]
All microsome incubations were stopped with 1 mL ice -cold ACN containing 5 µg/mL IS, vortexed for 1 min and cooled at -20 °C for 10 min. […]
2 µL SH045 (final concentration 0.5 – 100 µM, in triplicate), 12.5 µL HLM or MLM (finally 0.5 mg/mL protein) and 460.5 µL DPBS were vortexed and preincubated 37 °C for 5 min. The reaction was initiated by addition of 25 µL analogously pre-incubated β-NADPH (finally: 1 mM). […]
Testosterone (10 µM in ACN/DPBS 2/3, v/v) instead of SH045 was used as positive control and analyzed by an appropriate HPLC method with UV detection.
Negative controls contained either no NADPH, no MLM or HLM or none of them. […]
Mean maximum rate vmax and Michaelis-Menten constant Km were calculated using Lineweaver-Burk transformation. From Km an appropriate drug concentration of 2 µM was derived as prerequisite for experimental in vitro determination of t1/2 required for further exploration of clearance.
For this purpose, microsomes were incubated as described above with 2 µM SH045 for indicated time intervals up to 30 min. The remaining concentrations of SH045 were determined to calculate the intrinsic microsomal clearance CLint,micr the intrinsic clearance CLint, equal to the maximum enzyme activity of liver and for in vitro-in vivo exploration of hepatic clearance CLhep in mouse and human using the “well-stirred” model [6].
SM7 Identification of metabolism pathways and metabolites of SH045 in MLM and HLM To determine possible metabolism pathways of SH045 in MLM and HLM, an in vitro inhibition approach was performed with CYP-isoform specific inhibitors (final concentration): ciprofloxacin (CYP1A2; 150 µM), pilocarpine (CYP2A6; 50 µM), ticlopidine (CYP2B6; 5 µM), quercetin (CYP2C8; 2 µM), sulfaphenazole (CYP2C9; 10 µM), fluvoxamine (CYP2C19; 10 µM), quinidine (CYP2D6; 10 µM), 4-methyl pyrazole (CYP2E1; 100 µM) and ketoconazole (CYP3A4; 1 µM) [7, 8]. The inhibitors were dissolved in DPBS and appropriate methanol, the organic solvents not […]
SH045 (2 µM) was pre-incubated with MLM or HLM (0.5 mg/mL) and the specific inhibitor for 5 min at 37 °C in DPBS.
Ticlopidine, a time-dependent inhibitor was pre-incubated for 15 min [9]. Incubations were performed in triplicate with NADPH (1 mM) in a final volume of 500 µL for 2 min and 10 min with pre-incubated MLM and HLM, respectively, terminated with 1 mL ice-cold ACN and processed as described above for LC-MS/MS. A sample without any inhibitor served as a positive control. […]

Under “human, liver microsomes, scaled from CLint,micr”, `C=C[C@@](C)(O)CC[C@H]1C(=C)C[C@H](OC(=O)NC)[C@H]2C(C)(C)CCC[C@]12C` [SH045, (1S,4S,4aR,8aS)-4-((S)-3-Hydroxy-3-methylpent-4-en-1-yl)-4a,8,8-trimethyl-3-methylenedecahydronaphthalen-1-yl methylcarbamate] gave a CLint scaled at 2 µM of 334 mL/min/kg. Also, the CLhep (human, predicted by well-stirred model, Q 21 mL/min/kg) is given as 0.96 mL/min/kg. Moreover, where the note is “human, scaled from CLint,micr”, the CLint turned out to be 334.6 mL/min/kg. The half-life at 2 µM (pH 7.4, human liver microsomes 0.5 mg/mL, 2 µM SH045, NADPH) was found to be 4.85 min. Besides, under “pH 7.4, human liver microsomes, read-out: CLint, micr”, the microsomal CLint at 2 µM was 286 µL/min/mg.
